pIC50: −log10 of the molar value. Like-named read-outs stand apart in the source and are kept apart here.
Experiments:
[1] = molecular target: T1, α-amylase from porcine pancreas (Sus scrofa, UniProt P00690); test: α-amylase inhibitory activity (starch-iodine method); assay type: biochemical
T1 sequence (P00690 16-511): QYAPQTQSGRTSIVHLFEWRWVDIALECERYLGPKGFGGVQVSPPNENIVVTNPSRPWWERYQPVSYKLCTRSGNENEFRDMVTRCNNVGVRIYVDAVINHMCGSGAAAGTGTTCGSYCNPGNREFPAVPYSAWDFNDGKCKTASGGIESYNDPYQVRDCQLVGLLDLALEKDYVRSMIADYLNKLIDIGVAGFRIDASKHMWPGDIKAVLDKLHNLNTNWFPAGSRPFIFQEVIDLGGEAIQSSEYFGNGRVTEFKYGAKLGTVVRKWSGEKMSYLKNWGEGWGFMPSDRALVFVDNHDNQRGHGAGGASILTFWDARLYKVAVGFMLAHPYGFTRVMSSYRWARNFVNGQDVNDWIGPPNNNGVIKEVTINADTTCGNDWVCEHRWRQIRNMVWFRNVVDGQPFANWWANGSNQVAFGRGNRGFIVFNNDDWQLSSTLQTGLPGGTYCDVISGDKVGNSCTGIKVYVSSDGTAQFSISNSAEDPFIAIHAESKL
Experimental: (§1) The α-amylase and α-glucosidase assays were evaluated using α-amylase from porcine pancreas (Type IV-B, Sigma A3176, St. Louis, MO, USA) and α-glucosidase from Saccharomyces cerevisiae (Tipe I, Sigma G5003, St. Louis, MO, USA). Starch was used as substrate for α-amylase and p-Nitrophenyl-α-D-glucopiranoside (p-NPG-Sigma, N1377) was used as substrate for α-glucosidase. For both enzymatic tests, a microplate reader (EPOCH 2, Biotek Instruments Inc. Winoosky, VT, USA) was used.
The inhibitory activity is measured according to the method reported by Xiao et al. [30] with slight modifications. […] Starch solution was prepared by dissolving 1 g in 50 mL of 0.4 M NaOH and heated for 5 min at 100 °C. After cooling in iced water, the solution pH was adjusted to 7 with 2 M HCl and H2O was added to complete 100 mL. Sample solutions were prepared by dissolving 10 mg in 1 mL MeOH:H2O (50:50). Several dilutions in PBS (SIGMA-P4417) were made in case of getting complete enzyme inhibition. PBS solution (35 μL), substrate (35 μL) and sample (5 μL) solutions were mixed in a 96-well microtiter plate, and the mixture was pre-incubated at 37 °C for 1 min. Then, 20 μL of a 50 μg/mL α-amylase solution was added to each well. The plate was incubated for 15 min. […] The absorbance was measured in a microplate reader (EPOCH 2, Biotek Instruments Inc. Winoosky, VT, USA) at 580 nm. Inhibitory activity (%) was calculated according to the formula described by Kusano et al. [31] as follows: (1) Inhibition (%)=[1−(ABS2−ABS1)/(ABS4−ABS3)×100] where ABS1 is the absorbance of the incubated solution containing sample, starch and amylase, ABS2 is the absorbance of incubated solution containing sample and starch, ABS3 is the absorbance of incubated solution containing starch and amylase, and ABS4 is the absorbance of incubated solution containing starch. IC50 value was calculated by curve fitting of data (GraphPad Prism 5.0, GraphPad Software, Inc., La Jolla, CA, USA).

[2] = molecular target: α-glucosidase from Saccharomyces cerevisiae; test: α-glucosidase inhibition assay (p-NPG substrate, pNP release over 60 min); assay type: biochemical; settings: for pIC50: compounds and acarbose, max concentration tested 1 mM, '-' = no inhibitory activity at maximum dose tested
Experimental: as §1
α-Glucosidase inhibitory activity was determined using a 96-well microtiter plate with p-nitrophenyl-α-D-glucopyranoside as the substrate, according to the method describe by Tao et al. [32], with slight modifications. Sample solutions were prepared by dissolving 10 mg in 1 mL MeOH:H2O (50:50). Several dilutions in PBS were made in case of getting complete enzyme inhibition. First, 75 μL of PBS (SIGMA-P4417) was mixed with 5 μL of the sample and 20 μL of the enzyme solution (0.15 U/mL in PBS pH 7.4), then it was pre-incubated at 37 °C for 5 min prior to the initiation of the reaction by adding the substrate. After pre-incubation, 20 μL of PNPG (5 mM in phosphate buffer, pH 7.4) was added and then incubated at 37 °C. […] The results were expressed as inhibition percentage by means of the formula described by Choi et al. [33] as follows: (2) Inhibition (%)=[(Ao−As)/Ao]×100 where A0 is the absorbance recorded for the enzymatic activity without inhibitor (control), and As is the absorbance recorded for the enzymatic activity in presence of the inhibitor (sample). IC50 value was calculated by curve fitting of data (GraphPad Prism 5.0).

[3] = compounds and acarbose; max concentration tested 1 mM; '-' = inactive at maximum dose tested (<35% inhibition); read-out: IC50 α-amylase
[4] = read-out: IC50 α-amylase; compounds and acarbose; max concentration tested 1 mM; '-' = inactive at maximum dose tested (<35% inhibition)

| pIC50 [1, 3] | SMILES | pIC50 [2] | pIC50 [1, 4] | enzyme inhibition (α-glucosidase) ([2]; at the maximum dose tested (1 mM for compounds)) [%] |
| --- | --- | --- | --- | --- |
| < 4.20 | CCCCC/C=C\C/C=C\CCCCCCCC(=O)O [Compound 6, Linoleic acid] | 6.38 | – | – |
| – | O=C(O)/C=C\c1ccc(O)cc1 [Compound 2, Cis-p-coumaric acid] | < 4.38 | < 4.20 | – |
| < 4.20 | C=C(C)[C@@H]1CC[C@]2(C)CC[C@]3(C)[C@H](CC[C@@H]4[C@@]5(C)CC[C@H](O)C(C)(C)[C@@H]5CC[C@]43C)[C@@H]12 [Compound 3, Lupeol] | < 4.38 | – | – |
| – | O=C(O)/C=C/c1ccc(O)cc1 [Compound 5, Trans-p-coumaric acid] | < 4.38 | < 4.20 | 27 |
| < 4.20 | Oc1cc(O)c2c(c1)O[C@H](c1ccc(O)c(O)c1)[C@@H](O)C2 [Compound 7, (+)-Catechin] | 5.26 | – | – |
| – | C[C@@H]1O[C@@H](Oc2c(-c3ccc(O)c(O)c3)oc3cc(O)cc(O)c3c2=O)[C@H](O)[C@H](O)[C@H]1O [Compound 9, Quercitrin] | 5.11 | < 4.20 | – |

| SMILES | pIC50 [1, 3] | pIC50 [2] | pIC50 [1, 4] | enzyme inhibition (α-glucosidase) ([2]; at the maximum dose tested (1 mM for compounds)) [%] |
| --- | --- | --- | --- | --- |
| C=C(C)[C@@H]1CC[C@]2(C)CC[C@]3(C)[C@H](CC[C@@H]4[C@@]5(C)CC[C@H](OC(C)=O)C(C)(C)[C@@H]5CC[C@]43C)[C@@H]12 [Compound 1, Lupeol acetate] | < 4.20 | < 4.38 | – | – |
| CC[C@H](CC[C@@H](C)[C@H]1CC[C@H]2[C@@H]3CC=C4C[C@@H](O)CC[C@]4(C)[C@H]3CC[C@]12C)C(C)C [Compound 4, β-Sitosterol] | < 4.20 | < 4.38 | – | – |
